Data on one compound can be found in patent publication US20210015793A1, “COMPOUNDS FOR TREATING CNS- AND NEURODEGENERATIVE DISEASES” (ETH ZURICH, priority 2018, published 2021).

The test system of this experiment is MPP1. Description: Immunoblot of MPP1 content in PBMN cells of elderly human research participants. Conditions: 28 days, daily dose of 60 mg. It is filed as in vivo. The source says:
For protein separation by SDS-PAGE (Laemmli system), the protein pellet can be dissolved in SDS-PAGE sample buffer supplemented with SDS. As an alternative, sample buffer for native gel electrophoresis can be added. According to the original protocol, the SDS-PAGE Laemmli sample buffer contains 2% SDS, 0.1 M DTT (or 5% mercaptoethanol). To improve disaggregation of aggregated proteins, the buffer can be supplemented without or with urea ranging from about 0 M-8 M, preferably about 6 M urea and incubated for about 10 min to 24 h, preferably about 90 min at room temperature. Proteins can be stored frozen (about […]) at a concentration ranging from about 0.01-100 mg/ml, preferably about 0.5 mg-1 mg/ml, for further use. It may be further desirable to dilute the solubilisate, for example, diluting the supernatant solubilisate by 1:1-1:20, preferably 1:5, in a suitable buffer as described above (preferably supplemented with protease inhibitors). Before immunoblot detection of proteins, proteins are separated. For separation of proteins, one- or two-dimensional SDS-PAGE can be applied. […]
In general terms: In western blotting, separated proteins are transferred to a membrane and probed.

With `O=C(C1=C(O)C(c2ccc(F)cc2)N(c2ccc3c(c2)OCO3)C1=O)C1CC1` (stereo not shown) [Compound-1F, 1-(1,3-Benzodioxol-5-yl)-4-(cyclopropanecarbonyl)-2-(4-fluorophenyl)-3-hydroxy-2H-pyrrol-5-one], the “senescence marker protein MPP1 in PBMN cells vs before treatment” value is reported as “significant decrease”.
